Literature values, collected in patent US20210121517A1, “STABLE PARENTERAL DOSAGE FORM OF CETRORELIX ACETATE” (Sun Pharmaceutical Industries Limited, priority 2019, published 2021).
Like-named read-outs stand apart in the source and are kept apart here.

Conditions: 2.5 mg/ml

acetyl-D-3-(2′-naphtyl)-alanine-D-4-chlorophenylalanine-D-3-(3′-pyridyl)-alanine-L-serine-L-tyrosine-D-citruline-L-leucine-L-arginine-L-proline-D-alanine-amide [Cetrorelix acetate]
time until aggregation was seen (gluconic acid 0.71%, pH 3.1): 12 days
time until aggregation was seen (gluconic acid less than 0.07%, pH 3.7): ≤ 2 days
